# Measured values: patent US20160367623A1, “AGONISTS OF GUANYLATE CYCLASE USEFUL FOR THE TREATMENT OF GASTROINTESTINAL DISORDERS, INFLAMMATION, CANCER AND OTHER DISORDERS” (priority 2015, published 2016)
# Bridge positions count the residues as written; N and C are the ends. Ends that are not written are not given here.
# System: patients with chronic idiopathic constipation (CIC)
# Assay: Second phase 3 CIC trial: change from baseline in stool consistency (BSFS)
# Format: in vivo, human
# Conditions: 3 mg
# [1] = Post-Treatment Week 13, All Randomized (includes Duplicate Patients)
# [2] = Post-Treatment Week 13, ITT Population
# [3] = Post-Treatment Week 13, ITT Population-Excluding Duplicate Patients
# [4] = Post-Treatment Week 14, All Randomized (includes Duplicate Patients)
# [5] = Post-Treatment Week 14, ITT Population
# [6] = Post-Treatment Week 14, ITT Population-Excluding Duplicate Patients
# [7] = Week 1, All Randomized (includes Duplicate Patients)
# [8] = Week 1, ITT Population-Excluding Duplicate Patients
# [9] = Week 2, All Randomized (includes Duplicate Patients)
# [10] = Week 2, ITT Population-Excluding Duplicate Patients
# [11] = Week 3, All Randomized (includes Duplicate Patients)
# [12] = Week 3, ITT Population-Excluding Duplicate Patients
# [13] = Week 4, All Randomized (includes Duplicate Patients)
# [14] = Week 4, ITT Population-Excluding Duplicate Patients
# [15] = Week 5, All Randomized (includes Duplicate Patients)
# [16] = Week 5, ITT Population-Excluding Duplicate Patients
# [17] = Week 6, All Randomized (includes Duplicate Patients)
# [18] = Week 6, ITT Population-Excluding Duplicate Patients
substance,measurement,setting,value
"Asn^1-Asp^2-Glu^3-Cys^4-Glu^5-Leu^6-Cys^7-Val^8-Asn^9-Val^10-Ala^11-Cys^12-Thr^13-Gly^14-Cys^15-Leu^16 (NDECELCVNVACTGCL; disulfide 4-12, 7-15) [Plecanatide, uroguanylin analogue, guanylate cyclase-C agonist; (C4:C12, C7:C15) bicycle peptide]","Change from Baseline in Stool Consistency, Difference from Placebo",[1],0.24
same,"Change from Baseline in Stool Consistency, LS Mean (SE)",[1],1.23 (0.069)
same,"Change from Baseline in Stool Consistency, Mean (SD)",[1],1.27 (1.358)
same,"Change from Baseline in Stool Consistency, Difference from Placebo",[2],0.23
same,"Change from Baseline in Stool Consistency, LS Mean (SE)",[2],1.22 (0.071)
same,"Change from Baseline in Stool Consistency, Mean (SD)",[2],1.25 (1.368)
same,"Change from Baseline in Stool Consistency, Difference from Placebo",[3],0.23
same,"Change from Baseline in Stool Consistency, LS Mean (SE)",[3],1.22 (0.072)
same,"Change from Baseline in Stool Consistency, Mean (SD)",[3],1.25 (1.374)
same,"Change from Baseline in Stool Consistency, Difference from Placebo",[4],0.15
same,"Change from Baseline in Stool Consistency, LS Mean (SE)",[4],1.14 (0.071)
same,"Change from Baseline in Stool Consistency, Mean (SD)",[4],1.19 (1.393)
same,"Change from Baseline in Stool Consistency, Difference from Placebo",[5],0.14
same,"Change from Baseline in Stool Consistency, LS Mean (SE)",[5],1.15 (0.073)
same,"Change from Baseline in Stool Consistency, Mean (SD)",[5],1.19 (1.402)
same,"Change from Baseline in Stool Consistency, Difference from Placebo",[6],0.14
same,"Change from Baseline in Stool Consistency, LS Mean (SE)",[6],1.15 (0.074)
same,"Change from Baseline in Stool Consistency, Mean (SD)",[6],1.18 (1.408)
same,"Change from Baseline in Stool Consistency, Difference from Placebo",[7],0.68
same,"Change from Baseline in Stool Consistency, LS Mean (SE)",[7],1.26 (0.070)
same,"Change from Baseline in Stool Consistency, Mean (SD)",[7],1.38 (1.464)
same,"Change from Baseline in Stool Consistency, Difference from Placebo","Week 1, ITT Population",0.68
same,"Change from Baseline in Stool Consistency, LS Mean (SE)","Week 1, ITT Population",1.28 (0.072)
same,"Change from Baseline in Stool Consistency, Mean (SD)","Week 1, ITT Population",1.39 (1.479)
same,"Change from Baseline in Stool Consistency, Difference from Placebo",[8],0.69
same,"Change from Baseline in Stool Consistency, LS Mean (SE)",[8],1.30 (0.073)
same,"Change from Baseline in Stool Consistency, Mean (SD)",[8],1.39 (1.469)
same,"Change from Baseline in Stool Consistency, Difference from Placebo",[9],0.66
same,"Change from Baseline in Stool Consistency, LS Mean (SE)",[9],1.35 (0.070)
same,"Change from Baseline in Stool Consistency, Mean (SD)",[9],1.46 (1.566)
same,"Change from Baseline in Stool Consistency, Difference from Placebo","Week 2, ITT Population",0.66
same,"Change from Baseline in Stool Consistency, LS Mean (SE)","Week 2, ITT Population",1.38 (0.073)
same,"Change from Baseline in Stool Consistency, Mean (SD)","Week 2, ITT Population",1.46 (1.583)
same,"Change from Baseline in Stool Consistency, Difference from Placebo",[10],0.65
same,"Change from Baseline in Stool Consistency, LS Mean (SE)",[10],1.39 (0.073)
same,"Change from Baseline in Stool Consistency, Mean (SD)",[10],1.46 (1.578)
same,"Change from Baseline in Stool Consistency, Difference from Placebo",[11],0.52
same,"Change from Baseline in Stool Consistency, LS Mean (SE)",[11],1.41 (0.070)
same,"Change from Baseline in Stool Consistency, Mean (SD)",[11],1.52 (1.570)
same,"Change from Baseline in Stool Consistency, Difference from Placebo","Week 3, ITT Population",0.51
same,"Change from Baseline in Stool Consistency, LS Mean (SE)","Week 3, ITT Population",1.41 (0.073)
same,"Change from Baseline in Stool Consistency, Mean (SD)","Week 3, ITT Population",1.51 (1.573)
same,"Change from Baseline in Stool Consistency, Difference from Placebo",[12],0.51
same,"Change from Baseline in Stool Consistency, LS Mean (SE)",[12],1.42 (0.074)
same,"Change from Baseline in Stool Consistency, Mean (SD)",[12],1.52 (1.578)
same,"Change from Baseline in Stool Consistency, Difference from Placebo",[13],0.58
same,"Change from Baseline in Stool Consistency, LS Mean (SE)",[13],1.45 (0.071)
same,"Change from Baseline in Stool Consistency, Mean (SD)",[13],1.56 (1.509)
same,"Change from Baseline in Stool Consistency, Difference from Placebo","Week 4, ITT Population",0.55
same,"Change from Baseline in Stool Consistency, LS Mean (SE)","Week 4, ITT Population",1.45 (0.073)
same,"Change from Baseline in Stool Consistency, Mean (SD)","Week 4, ITT Population",1.55 (1.494)
same,"Change from Baseline in Stool Consistency, Difference from Placebo",[14],0.54
same,"Change from Baseline in Stool Consistency, LS Mean (SE)",[14],1.45 (0.074)
same,"Change from Baseline in Stool Consistency, Mean (SD)",[14],1.56 (1.504)
same,"Change from Baseline in Stool Consistency, Difference from Placebo",[15],0.68
same,"Change from Baseline in Stool Consistency, LS Mean (SE)",[15],1.53 (0.071)
same,"Change from Baseline in Stool Consistency, Difference from Placebo","Week 5, ITT Population",0.68
same,"Change from Baseline in Stool Consistency, LS Mean (SE)","Week 5, ITT Population",1.55 (0.074)
same,"Change from Baseline in Stool Consistency, Mean (SD)","Week 5, ITT Population",1.69 (1.462)
same,"Change from Baseline in Stool Consistency, Difference from Placebo",[16],0.67
same,"Change from Baseline in Stool Consistency, LS Mean (SE)",[16],1.56 (0.075)
same,"Change from Baseline in Stool Consistency, Mean (SD)",[16],1.70 (1.469)
same,"Change from Baseline in Stool Consistency, Difference from Placebo",[17],0.74
same,"Change from Baseline in Stool Consistency, LS Mean (SE)",[17],1.55 (0.072)
same,"Change from Baseline in Stool Consistency, Difference from Placebo","Week 6, ITT Population",0.74
same,"Change from Baseline in Stool Consistency, LS Mean (SE)","Week 6, ITT Population",1.56 (0.074)
same,"Change from Baseline in Stool Consistency, Mean (SD)","Week 6, ITT Population",1.67 (1.533)
same,"Change from Baseline in Stool Consistency, Difference from Placebo",[18],0.73
same,"Change from Baseline in Stool Consistency, LS Mean (SE)",[18],1.56 (0.075)
same,"Change from Baseline in Stool Consistency, Mean (SD)",[18],1.67 (1.529)
